Assays:
skin of a minipig = test: In vivo transdermal delivery on the back of minipigs, passive and active (photoacoustic device); conditions: device of Example 1, 12 laser shots at 355 nm, 10 mJ per pulse
Description: In vivo and in vitro tests employed four minipigs obtained from IMIDHA (Instituto Madrileño de Investigación y Desarrollo Rural, Agrario y Alimentario)—Aranjuez (Madrid). They were all females, aged 6-8 months, white with brown spots, average weight 56.8 kg (66.2, 57.1, 43.5, 60.6 kg). They were received at Estação Zootécnica Nacional, Vale de Santarém, where they were accommodated in individual boxes with 1.5 m^2, feed with a standard diet for pigs and water ad libidum, for an acclimation period of three weeks. The study was performed in accordance to the Portuguese ethical guidelines on a license granted by Dircção de Serviços de Saúde o Protecção Animal, ref. 0420/000/000/2007. Access to food was suspended 24 h hours before treatment. The backs of the animals were shaved 24 h prior to the in vivo application of the dermatological formulations. […]
(§1) The skin samples collected after the experiments were analyzed by microscopy to evaluate the penetration depth of the desired compounds, or followed an extraction procedure to evaluate their amounts under the skin. The evaluation of the penetration depth by fluorescence microscopy or by confocal microscopy requires tissue fixation. […] The skin slices were collected in microscope slides and kept refrigerated until they were analyzed by fluorescence microscopy and confocal microscopy. […]

[1] = In vitro transdermal delivery through minipig skin samples, passive versus active (photoacoustic device); assay type: in vitro ADME; conditions: extraction with dichloromethane and fluorescence, confirming fluorescence microscopy; high-impulse broadband pressure wave versus passive
Procedure: Skin sections were cut from the back of the minipigs after they had been sacrificed. These skin sections were frozen and kept at −18° C. until use in in vitro tests. Before each in vitro test, the required amount of minipig skin was slowly brought to room temperature. All the tests were carried out at room temperature.
as §1, with “fixation. The first step in the fixation was immersion in paraformaldehyde (4% in aqueous solution) for at least 24 h. Next, the samples were transferred to a 25% sucrose solution for at least 48 h.” for “fixation.”
In order to evaluate the quantities of the F2TPPMet delivered under the skin a specific method was developed. […] Fluorescence calibration curves of the pharmacological excipient delivered in the skin were performed in the extractor solvent to validate the methodology used. Finally, the mass delivered onto the skin is determined for each essay substituting its fluorescence in the calibration curve. […]

## 5,10,15,20-tetrakis(2,6-fluoro-3-N-methylsulfamoylphenyl)porphyrin [F2TPPMet]
Skin of a minipig; 20 minutes incubation
  state of the stratum corneum after active transdermal delivery: stratum corneum remained intact
Skin of a minipig; ca 1 cm^2, 20 minutes incubation
  distribution in the skin by fluorescence microscopy after active transdermal delivery: distributed over all the epidermis
[1]
  quantity of F2TPPMet delivered to the skin, active versus passive transdermal delivery: increase in the quantity of F2TPPMet delivered to the skin

Source: patent US9623226B2, “Device for efficient delivery of compounds to or through the skin or biological barriers, using light-absorbing thin films” (Universidade de Coimbra, priority 2011, dated 2017)
